Like-named read-outs stand apart in the source and are kept apart here.
Experiments:
[1] = tested on: Ca9-22 cells; assay: Cytotoxicity against Ca9-22 cells, MTT method, 48 h; type: cell-based, human; conditions: for CC50: Homo sapiens, read-out: CC50 Ca9-22; for SI Ca9-22: average CC50 towards HGF, HPLF, HPC divided by CC50 against Ca9-22
Experimental: (§1) A literature procedure was followed when the compounds in series 3 and 4 were evaluated against three human oral squamous cell carcinoma cell lines Ca9-22 (RCB-1976), HSC-2 (RCB1945), HSC-4 (RCB1902) (purchased from RIKEN Cell Bank, Tukuba, Japan) and three human normal oral cells, gingival fibroblast (HGF), periodontal ligament fibroblast (HPLF) and pulp cells (HPC) (established according to the guideline of the intramural ethic committee, A0808) except the duration of incubation was increased from 24 h to 48 h. In brief, various concentrations of the compounds were added to the DMEM media, which was supplemented by 10% heat-inactivated fetal bovine serum. Incubation was undertaken at 37 °C. At the completion of the experiment, cell viability was determined by the MTT method.

[2] = tested on: HSC-2 cells; assay: Cytotoxicity against HSC-2 cells, MTT method, 48 h; type: cell-based, human; conditions: for CC50: Homo sapiens, HSC-2, concentration required to kill 50% of the cells, 48 h, MTT; for SI HSC-2: average CC50 towards HGF, HPLF, HPC divided by CC50 against HSC-2
Experimental: as §1

[3] = tested on: HSC-4 cells; assay: Cytotoxicity against HSC-4 cells, MTT method, 48 h; type: cell-based, human; conditions: for CC50: Homo sapiens, read-out: CC50 HSC-4; for SI HSC-4: average CC50 towards HGF, HPLF, HPC divided by CC50 against HSC-4
Experimental: as §1

[4] = tested on: Ca9-22, HSC-2 and HSC-4 cells; assay: Average over Ca9-22, HSC-2 and HSC-4 neoplastic cells; type: cell-based, human; conditions: for CC50: Homo sapiens, read-out: Average CC50; for Average SI: average of SI for Ca9-22, HSC-2 and HSC-4
Experimental: In order to assess whether the compounds in series 3 and 4 are more toxic to neoplasms than non-malignant cells, selective index (SI) figures were calculated. In the in vivo situation, a tumour is surrounded by a number of non-malignant cells.
In order to identify the most promising lead compounds in terms of both cytotoxic potencies and favourable SI values, potency–selectivity expression (PSE) values were computed. […] Outstanding results may be noted for four compounds that have PSE values in excess of 100,000 namely 3d, 4c–e. […] However, the relative SI/PSE distribution patterns between series 3 and 4 (from a to h) are nearly superimposable with each other (Figure 3). […] It has been reported that 3,5-bis(3-iodo-5-methoxy-4-propoxybenzylidene)-N-acetylpiperidin-4-one inhibited tubulin and destabilization of microtubules, while 3,5-bis(3,4,5-trimethoxybenzylidene)-N-benzoylpiperidin-4-one destabilizes the microtubules. Thus, it remained to investigate whether compound 4d acts as an inhibitor of the microtubule.
as §1

[5] = Cytotoxicity against non-malignant HGF cells, MTT method, 48 h; type: cell-based; conditions: human, gingival fibroblasts (HGF)
Experimental: as §1

[6] = Cytotoxicity against non-malignant HPLF cells, MTT method, 48 h; type: cell-based; conditions: human, periodontal ligament fibroblasts (HPLF)
Experimental: as §1

[7] = Cytotoxicity against non-malignant HPC cells, MTT method, 48 h; type: cell-based; conditions: human, pulp cells (HPC)
Experimental: as §1

[8] = Average over HGF, HPLF and HPC non-malignant cells; type: cell-based; conditions: human, HPLF and HPC non-malignant cells (average of the three)
Experimental: as §1

[9] = tested on: CEM T-lymphoblastic leukemia cells; assay: Cytotoxicity against CEM cells, MTT method, 24 h; type: cell-based; conditions: Homo sapiens, CCRF-CEM, concentration required to inhibit cell growth by 50%
Experimental: The method used for the evaluation of various compounds against human CEM cells has been reported previously. In brief, cells were grown in RPMI-1640 medium supplemented with 10% heat-inactivated fetal bovine serum. Different concentrations of compounds were added to the media, and after 24 h incubation, cytotoxicity was measured by the MTT method.

[10] = tested on: CEM cells; assay: Effect on mitochondrial membrane potential, JC-1 dye, flow cytometry; type: cell-based, human; conditions: CC50 and twice CC50 concentrations, 8 h
Experimental: The effect of 4b,c on the mitochondrial membrane potential of CEM cells was determined using a literature method. In brief, the cells were incubated with the compounds for 8 h. The neoplasms were then stained with the JC-1 dye and the results were obtained using flow cytometry.

[11] = Stability by 1H NMR in 9:1 deuterated dimethylsulfoxide and deuterium oxide; type: physicochemical; conditions: 37 °C
[12] = tested on: Ca9-22 cells; assay: Cell cycle analysis and morphological changes in Ca9-22 cells; type: cell-based, human; conditions: 24 h
Experimental: Treated and untreated Ca9-22 cells (approximately 10^6 cells) were harvested, fixed with 1% paraformaldehyde, treated with 0.2 mg/mL RNase A (preheated for 10 min at 100 °C to inactivate DNase), stained for 15 min with 0.01% propidium iodide in the presence of 0.01% NP-40 to prevent cell aggregation, filtered through Falcon® cell strainers ([…]) (Corning, NY, USA), subjected to cell sorting (SH800 Series; SONY Imaging Products and Solutions Inc., Kanagawa, Japan) and then analyzed with Cell Sorter Software version 2.1.2. (SONY Imaging Products and Solutions Inc., Kanagawa, Japan), as described previously.

[13] = tested on: COLO 205, HCC2998, HCT-15, KM12 and SW-620 cells; conditions: read-out: average IC50 against COLO 205, HCC2998, HCT-15, KM12 and SW-620 cells; cited from earlier work
[14] = tested on: HL-60 (TB), K-562, RPMI-8226 and SR cells; design: method as in PMID 24657568; conditions: read-out: average IC50 against HL-60 (TB), K-562, RPMI-8226 and SR cells; cited from earlier work
[15] = Ca9-22, concentration required to kill 50% of the cells, 48 h, MTT
[16] = HSC-4, concentration required to kill 50% of the cells, 48 h, MTT
[17] = average of Ca9-22, HSC-2 and HSC-4

SMILES | CC50 [1, 15] [µM] | SI Ca9-22 [1] | CC50 [2] [µM] | SI HSC-2 [2] | CC50 [3, 16] [µM] | SI HSC-4 [3] | CC50 [4, 17] [µM] | CC50 at 48 h [5] [µM] | CC50 at 48 h [6] [µM] | CC50 at 48 h [7] [µM] | CC50 at 48 h [8] [µM] | IC50 [9] [µM] | effect on the mitochondrial membrane potential (MMP) [10] | Average SI [4] | also measured
C[N+]1(CCC(=O)N2C/C(=C\c3ccc(Cl)cc3)C(=O)/C(=C/c3ccc(Cl)cc3)C2)CCC(=NO)CC1 (stereo not drawn) [Compound 4c, (3~{E},5~{E})-3,5-bis[(4-chlorophenyl)methylene]-1-[3-(4-hydroximino-1-piperidyl)propanoyl]piperidin-4-one methiodide] | 0.02 ± 0.01 | 202 | 0.06 ± 0.01 | 67.3 | 0.09 ± 0.03 | 44.9 | 0.06 | 1.65 ± 0.17 | 4.17 ± 1.44 | 6.3 ± 0.7 | 4.04 | 4.96 ± 0.28 | interfered with the MMP |  | 
C[N+]1(CCC(=O)N2C/C(=C\c3ccc(F)cc3)C(=O)/C(=C/c3ccc(F)cc3)C2)CCC(=NO)CC1 (stereo not drawn) [Compound 4b, (3~{E},5~{E})-3,5-bis[(4-fluorophenyl)methylene]-1-[3-(4-hydroximino-1-piperidyl)propanoyl]piperidin-4-one methiodide] | 0.29 ± 0.23 | 28.7 | 0.42 ± 0.14 | 19.8 | 0.21 ± 0.01 | 39.6 | 0.31 | 4.5 ± 1.39 | 9.13 ± 0.48 | 11.3 ± 2.59 | 8.31 | 1.05 ± 0.38 | interfered with the MMP | 29.4 | 
C[N+]1(CCC(=O)N2C/C(=C\c3ccccc3)C(=O)/C(=C/c3ccccc3)C2)CCC(=NO)CC1 (stereo not drawn) [Compound 4a, (3~{E},5~{E})-3,5-bis-benzylidine-1-[3-(4-hydroximino-1-piperidyl)propanoyl]piperidin-4-one methiodide] | 0.56 ± 0.01 | 30.4 | 1.45 ± 0.16 | 11.7 | 0.58 ± 0.04 | 29.3 | 0.86 | 9.65 ± 1.23 | 24.6 ± 1.1 | 16.8 ± 0.68 | 17 | 7.62 ± 1.44 |  | 23.8 | stability: 1H NMR spectra in dissolution and after 48 h incubation [11]: identical; melting point: 173 °C
C[N+]1(CCC(=O)N2C/C(=C\c3ccc(Cl)c(Cl)c3)C(=O)/C(=C/c3ccc(Cl)c(Cl)c3)C2)CCC(=NO)CC1 (stereo not drawn) [Compound 4d, (3~{E},5~{E})-3,5-bis[(3,4-dichlorophenyl)methylene]-1-[3-(4-hydroximino-1-piperidyl)propanoyl]piperidin-4-one methiodide] | 0.01 | 236 | 0.03 | 78.7 | 0.03 | 78.7 | 0.02 | 1.15 ± 0.41 | 2.12 ± 0.2 | 3.81 ± 0.02 | 2.36 | 5.19 ± 0.66 |  |  | morphological change and cell cycle effect [12]: induced cell spreading due to G2/M cell accumulation without the induction of a subG1 population
O=c1[nH]cc(F)c(=O)[nH]1 [5-fluorouracil] |  |  |  |  |  |  |  |  |  |  |  |  |  |  | IC50 [13]: 8.46 µM
N[C@@H](Cc1ccc(N(CCCl)CCCl)cc1)C(=O)O [Melphalan, reference compound] |  |  |  |  |  |  |  | 157 ± 38.2 | 195 ± 4.04 | > 200 |  |  |  |  | CC50 ([1]; Ca9-22, 48 h): 48.5 ± 1.33 µM; CC50 ([3]; HSC-4, 48 h): 17.4 ± 0.88 µM; CC50 [4]: 26.7 µM; IC50 [14]: 56.7 µM
